Here are results for eleven molecules from patent US7655784B2, “Trans-sialidases obtained from Trypanosoma congolense” (N.V. Nutricia, priority 2002, dated 2010).

One assay relates to trans-sialidase TS2. Put plainly: Trans-sialidase transfer activity of TS2 in the presence of salts, metal ions and putative inhibitors. In kind it is biochemical, Trypanosoma congolense. The note with it: for Effect of putative inhibitors: 10 mM; for Salt effect: reduction of enzyme activity: 1M salt, de-salting produces enzyme activity again. The protocol: (§1) In order to determine the transfer activity of the trans-sialidase, 25 μl enzyme solution in 50 mM BisTris buffer, pH7.0, are incubated together with 1 mM NeufAc-α(2-3) lactose as a donor and 0.5 mM 4-methylumbelliferyl galactoside as an acceptor in a final volume of 50 μl at 37° C. for 2 hrs. The incubation is halted by adding 1 ml ice cold water. The reaction batch is then introduced to columns previously filled with 0.3 ml Q Sepharose FF (acetate form) and pre-equilibrated with water. After having washed out the acceptor with water and having discarded the dead volume (200 μl 1N HCl), the sialated product is eluated with 1N HCl (700 μl). Following acid hydrolysis of the product at 95° C. for 45 mins and cooling on ice, the probe is neutralised with 250-290 μl 2 N NaOH and 300 μl 1M glycin/NaOH buffer pH 10.0. The fluorescence of the released methylumbelliferone is measured in black 96 well plates (Microfluor, Dynex, U.S.A.) with a stimulation wave length of 365 nm and an emission wave length of 450 nm. The activity of the enzyme corresponds to the intensity of the fluorescence measured and can be read off on a previously established calibration curve (method in accordance with Engstler et al. 1992).

In the next assay the test system is trans-sialidase TS1. Put plainly: Trans-sialidase transfer activity of TS1 in the presence of salts, metal ions and putative inhibitors. Format: biochemical, Trypanosoma congolense. The following applies: for Effect of putative inhibitors: 10 mM; for Salt effect: reduction of enzyme activity: 1M salt, de-salting produces enzyme activity again. On the procedure: as §1

The structures appear in SMILES notation.

With `[Mg+2]` [Mg^2+], the “Effect of metal ions” value with trans-sialidase TS2 (20 mM) is 20 mM Ca^2+, Mg^2+, Mn^2+: no effect 5 mM; with trans-sialidase TS1 (20 mM), 20 mM Ca^2+, Mg^2+, Mn^2+: no effect 5 mM.
Turning to `[Cu+2]` [Cu^2+], the “Effect of metal ions” value in the assay on trans-sialidase TS2 (5 mM) is “Cu^2+, Zn^2+, Fe^2+, Co^2+: little effect”; in the assay with trans-sialidase TS1 (5 mM), “Cu^2+, Zn^2+, Fe^2+, Co^2+: little effect”.
In the case of `O=C(O)C(=O)Nc1ccc([N+](=O)[O-])cc1` [N-(4-nitrophenyl)oxamic acid, reference compound], the “Effect of putative inhibitors” value with trans-sialidase TS2 and in the assay with trans-sialidase TS1 was 10 mM N-(4-nitrophenyl)oxamic acid: little in each case.
In the case of `[Co+2]` [Co^2+], the “Effect of metal ions” value in the assay with trans-sialidase TS2 (5 mM) is “Cu^2+, Zn^2+, Fe^2+, Co^2+: little effect”; in the assay on trans-sialidase TS1 (5 mM) it was “Cu^2+, Zn^2+, Fe^2+, Co^2+: little effect”.
On to `[Ca+2]` [Ca^2+], for which the “Effect of metal ions” value in the assay with trans-sialidase TS2 (20 mM) is 20 mM Ca^2+, Mg^2+, Mn^2+: no effect 5 mM; with trans-sialidase TS1 (20 mM), 20 mM Ca^2+, Mg^2+, Mn^2+: no effect 5 mM.
For `CC(=O)N[C@H]1[C@H]([C@H](O)[C@H](O)CO)OC(C(=O)O)=C[C@@H]1O` [N-acetyl-2,3-didehydro-2-deoxyneuraminic acid, reference compound], the “Effect of putative inhibitors” value in the assay with trans-sialidase TS2 and with trans-sialidase TS1 was “acid: little inhibition” in each case.
Regarding `[Mn+2]` [Mn^2+], the “Effect of metal ions” value with trans-sialidase TS2 (20 mM) is recorded as 20 mM Ca^2+, Mg^2+, Mn^2+: no effect 5 mM; in the assay with trans-sialidase TS1 (20 mM), 20 mM Ca^2+, Mg^2+, Mn^2+: no effect 5 mM.
As to `[Fe+2]` [Fe^2+], the “Effect of metal ions” value is on record as “Cu^2+, Zn^2+, Fe^2+, Co^2+: little effect” in the assay with trans-sialidase TS2 (5 mM) and “Cu^2+, Zn^2+, Fe^2+, Co^2+: little effect” in the assay with trans-sialidase TS1 (5 mM).
Regarding `[Cl-].[Na+]` [NaCl], the “Salt effect: reduction of enzyme activity” value is reported as “enzymes by 50%, de-salting produces enzyme” in the assay on trans-sialidase TS2 and “enzymes by 50%, de-salting produces enzyme” in the assay with trans-sialidase TS1.
Regarding `[Cl-].[K+]` [KCl], the “Salt effect: reduction of enzyme activity” value in the assay on trans-sialidase TS2 is recorded as “enzymes by 50%, de-salting produces enzyme”; with trans-sialidase TS1, “enzymes by 50%, de-salting produces enzyme”.
Turning to `[Zn+2]` [Zn^2+], the “Effect of metal ions” value in the assay on trans-sialidase TS2 (5 mM) was “Cu^2+, Zn^2+, Fe^2+, Co^2+: little effect”; in the assay with trans-sialidase TS1 (5 mM), “Cu^2+, Zn^2+, Fe^2+, Co^2+: little effect”.
